Source: patent publication US20250171404A1, “PCNA INHIBITORS AND USES THEREOF” (CITY OF HOPE, priority 2022, published 2025)

Key:
[1] = system: SK-N-DZ neuroblastoma cells; assay: Clonogenic assay with cisplatin; assay type: cell-based, human; settings: 500 nM AOH1996, 18 hours
Procedure: FIGS. 3A-3D. Therapeutic properties of AOH1996. FIG. 3A: Normal cells (7SM0032) or cancer cells (SH-SY5Y and SK-N-BE(2)c) cells were fixed, stained with PI, and analyzed by flow cytometry following treatment with 500 nM AOH1996 for the indicated time. FIG. 3B: SK-N-DZ neuroblastoma cells and nonmalignant 7SM0032 stem cells were incubated with 500 nM AOH1996 for 24 h. Then, after being fixed on slides, cell apoptosis were analyzed by a TUNEL assay. Left: TMR fluorophore attached to the free ends of DNA indicates cells undergoing apoptosis. DAPI stained nuclei also shown. Right: Average abundance ±S.D. of apoptotic 7SM0032 (black histogram) and SK-N-DZ (grey histogram) cells relative to the total number of cells are shown in 5 randomly selected fields. FIG. 3C: Human SK-N-DZ neuroblastoma cells were treated with or without the indicated concentrations of cisplatin in the absence or presence of 500 nM of AOH1996 for 18 hours. […] The relative number of colonies determined in triplicates for each treatment condition were averaged and graphed ±SDs (*, P<0.01). […] Cell growth was measured as the percentage of cell confluence by imaging every 6 h for a total of 48 h.
Clonogenic Assay. […] The colonies were stained with 0.5% crystal violet and counted. Synergy between AOH1996 and cisplatin was evaluated using combination indices (Cl) based on the Bliss independence model [C]=(EA+EB−EA*EB)/EAB] […]

PCNA = biological target: T1, PCNA (Homo sapiens, UniProt P12004); assay: Thermal denaturation (thermal shift) assay; assay type: binding; settings: 9 μM PCNA; 10 or 30 μM compound; dose dependent
T1 construct: made in house; host or cells: E. coli Rosetta 2 (DE3)
T1 sequence (P12004 whole entry): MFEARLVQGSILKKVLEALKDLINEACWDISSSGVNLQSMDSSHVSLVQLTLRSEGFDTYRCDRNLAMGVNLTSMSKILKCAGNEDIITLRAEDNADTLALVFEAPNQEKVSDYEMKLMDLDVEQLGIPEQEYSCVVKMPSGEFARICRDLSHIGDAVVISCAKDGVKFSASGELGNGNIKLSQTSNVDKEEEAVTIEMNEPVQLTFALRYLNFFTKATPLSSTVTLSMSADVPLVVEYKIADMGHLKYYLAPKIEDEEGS
Procedure: FIGS. 1A-1E. AOH1160 analog interactions with PCNA. FIG. 1A: Thermal shift assay: Normalized inverse derivative thermal denaturation plots of 9 μM apo-PCNA with DMSO control is depicted with a black dashed line and PCNA in the presence of 10 μM AOH1160LE is shown in light grey and 30 μM AOH1160LE in dark grey. ΔTm values are provided. FIG. 1B: As described in FIG. 1A, in the presence of 10 μM AOH1996 depicted in light grey and 30 μM AOH1996 depicted in dark grey. FIG. 1C: Four monomers (chains A-D) of PCNA are present in the asymmetric unit of the crystal. Chains A, B, and C form the homotrimer biological unit, while chain Dis orientated perpendicular to the plane of the ring, below the interface of chains B and C and it belongs to an adjacent ring. Inset: Three molecules of AOH1160LE bind in and adjacent to the PIP box cavity of each of the PCNA ring subunits. The omit map, gray mesh, is contoured to 1.56. Two PCNA monomer subunits from adjacent rings stack against each other, placing the PIP box and IDCLs of each subunit in opposing directions. FIG. 1D: The three AOH1160LE molecules are shown as stick figure representations. Two of the compounds, left and central, bind into the PIP box cavity at known PCNA-partner/compound interaction sites. […] The electrostatic surface maps are depicted with Poisson-Boltzmann electrostatic surface potentials shown in dark grey and light grey, corresponding to −10 to +10 kT/e respectively.
Targeting the PIP box and APIM binding domain of PCNA. AOH1160, a small molecule PCNA ligand, targets the cancer-distinct L126-Y133 region of PCNA (Malkas et al., 2006) and is selectively toxic to cancer cells (Gu et al., 2018). […]
Thermal denaturation assay for PCNA-AOH1996 interaction. […] Fluorescence intensity was measured within the excitation/emission ranges 470-505/540-700 nm.

OVCAR8 = assay: Cell growth IC50, screening of AOH1160 analogs; assay type: cell-based; settings: Homo sapiens, OVCAR-8, read-out: IC50 values
HTC-116 = assay: Cell growth IC50, screening of AOH1160 analogs; assay type: cell-based; settings: read-out: IC50 values
RKO = assay: Cell growth IC50, screening of AOH1160 analogs; assay type: cell-based; settings: Homo sapiens, read-out: IC50 values
MDA-MB-468 = assay: Cell growth IC50, screening of AOH1160 analogs; assay type: cell-based; settings: Homo sapiens, MDA-MB-468, read-out: IC50 values
HCT-116 = assay: Cell growth IC50, screening of AOH1160 analogs; assay type: cell-based; settings: Homo sapiens, HCT-116, read-out: IC50 values

Compound: COc1cccc(Oc2ccccc2NC(=O)CNC(=O)c2cccc3ccccc23)c1 [AOH1996, N-(2-((2-(3-methoxyphenoxy)phenyl)amino)-2-oxoethyl)-1-naphthamide]
- sensitivity to cisplatin (colony formation) [1]: increased the sensitivity of cancer cells to genotoxic agents, including cisplatin
- shift of protein melting curves (ΔTm) (PCNA): ≤ 1.5 °C
- IC50 (OVCAR8): 549 nM
- IC50 (HTC-116): 250 nM
- IC50 (RKO): 255 nM
- IC50 (MDA-MB-468): 740 nM
- IC50 (HCT-116): 786 nM
